As usually defined, the melting point is the temperature of the solid-liquid transition. Usually Ki stands for the dissociation constant of the complex between target and ligand, obtained from inhibition or displacement.

Drawing on patent US8637501B2, “Azinone-substituted azepino[b]indole and pyrido-pyrrolo-azepine MCH-1 antagonists, methods of making, and use thereof” (Albany Molecular Research, Inc., priority 2009, dated 2014), this text covers melting point and Ki for 29 compounds.

Where a name gives a salt, the structure may show the parent alone.

Data set [1] deals with human MCH-1 receptor (Homo sapiens (Human), UniProt Q99705). The experiment in a line: Binding Assay for Human Melanin-Concentrating Hormone (MCH-1) Receptor. The settings on record: radioligand displacement, membranes from CHO-K1 cells expressing human MCH-1 receptor; Ki from IC50 by Cheng Prusoff equation; read-out: MCH1 Ki. The procedure, abridged: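 Membranes from CHO-K1 cells stably expressing human MCH-1 incubated 60 min at 25 °C with 1.4 nM tritiated indazolyl-pyridinone radioligand in 50 mM Tris-HCl pH 7.4. Bound counts by filtration and scintillation; IC50 and nH by Hill fit, Ki by Cheng–Prusoff.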
For orientation: In a radioligand displacement assay an active substance lowers the binding of a labelled ligand.

Chain of human MCH-1 receptor (Q99705 whole entry): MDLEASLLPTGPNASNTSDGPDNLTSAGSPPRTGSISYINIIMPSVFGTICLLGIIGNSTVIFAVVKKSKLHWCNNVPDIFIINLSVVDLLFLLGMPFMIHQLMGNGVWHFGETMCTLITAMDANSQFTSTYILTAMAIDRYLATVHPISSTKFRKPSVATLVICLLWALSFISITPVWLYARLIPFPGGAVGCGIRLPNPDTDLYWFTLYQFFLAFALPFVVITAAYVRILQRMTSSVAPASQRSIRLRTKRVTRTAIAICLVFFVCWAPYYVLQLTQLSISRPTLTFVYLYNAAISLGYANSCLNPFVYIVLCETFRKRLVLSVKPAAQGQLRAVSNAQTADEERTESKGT

Consider `Cn1c2c(c3ccc(-n4ncc(OCc5ccc(F)cn5)cc4=O)cc31)CCNCC2` (as salt: hydrochloride) [Example 10, 5-((5-Fluoropyridin-2-yl)methoxy)-2-(6-methyl-1,2,3,4,5,6-hexahydroazepino[4,5-b]indol-8-yl)pyridazin-3(2H)-one dihydrochloride], for which the melting point was in the range of 250 to 254 °C.
Take `Cl.O=c1cc(OCc2ccccc2)ccn1-c1ccc2c3c([nH]c2c1)CCNCC3` [Example 7, 4-(Benzyloxy)-1-(1,2,3,4,5,6-hexahydroazepino[4,5-b]indol-8-yl)pyridin-2(1H)-one hydrochloride]: the melting point lay in the range of 258 to 260 °C. Also, the Ki in data set [1] is 6 nM.
For `CCN1CCc2c(n(C)c3cc(-n4ccc(OCc5ccccc5)cc4=O)ccc23)CC1.Cl` [Example 14, 4-(Benzyloxy)-1-(3-ethyl-6-methyl-1,2,3,4,5,6-hexahydroazepino[4,5-b]indol-8-yl)pyridin-2(1H)-one hydrochloride], the melting point fell in the range of 246 to 248 °C. For the same compound, the Ki in data set [1] is 9.6 nM.
For `CC(C)N1CCc2c(n(C)c3cc(-n4ccc(OCc5ccccc5)cc4=O)ccc23)CC1.Cl` [Example 15, 4-(Benzyloxy)-1-(3-isopropyl-6-methyl-1,2,3,4,5,6-hexahydroazepino[4,5-b]indol-8-yl)pyridin-2(1H)-one hydrochloride], the melting point is 256 to 258 °C. For the same compound, the Ki in data set [1] stood at 10.4 nM.
The matching figures for `CC(C)N1CCc2[nH]c3cc(-n4ccc(OCc5ccccc5)cc4=O)ccc3c2CC1.Cl` [Example 17, 4-(Benzyloxy)-1-(3-isopropyl-1,2,3,4,5,6-hexahydroazepino[4,5-b]indol-8-yl)pyridin-2(1H)-one hydrochloride]: 152 to 155 °C and 7.2 nM.
The matching figures for `Cl.Cn1c2c(c3ccc(-n4ccc(OCc5ccccc5)cc4=O)cc31)CCCNC2` [Example 18, 4-(Benzyloxy)-1-(10-methyl-1,2,3,4,5,10-hexahydroazepino[3,4-b]indol-8-yl)pyridin-2(1H)-one hydrochloride]: 210 to 218 °C (dec.) and 11.8 nM.
As to `Cl.Cn1c2c(c3ccc(-n4ccc(OCc5ccc(F)cn5)cc4=O)cc31)CCCNC2` [Example 19, 4-((5-Fluoropyridin-2-yl)methoxy)-1-(10-methyl-1,2,3,4,5,10-hexahydroazepino[3,4-b]indol-8-yl)pyridin 2(1H)-one hydrochloride], the melting point is 268 to 275 °C (dec.). Moreover, the Ki in data set [1] was 14.8 nM.
`Cl.Cn1c2c(c3ccc(-n4ccc(-c5ccc(C(F)(F)F)cn5)cc4=O)cc31)CCCNC2` [Example 20]: the melting point is 288 to 296 °C (dec.).
For `Cl.Cn1c2c(c3ccc(-n4ccc(OCc5ccccc5)cc4=O)cc31)CNCCC2` [Example 21, 4-(Benzyloxy)-1-(6-methyl-1,2,3,4,5,6-hexahydroazepino[4,3-b]indol-8-yl)pyridin-2(1H)-one hydrochloride], the melting point is 283 to 287 °C (dec.). The Ki in data set [1] was 4.7 nM.
Regarding `Cl.Cn1c2c(c3ccc(-n4ccc(-c5ccc(C(F)(F)F)cn5)cc4=O)cc31)CNCCC2` [Example 23, 1-(6-Methyl-1,2,3,4,5,6-hexahydroazepino[4,3-b]indol-8-yl)-4-(5-(trifluoromethyl)pyridin-2-yl)pyridin-2(1H)-one hydrochloride], the melting point is 264 to 270 °C (dec.). In addition, the Ki in data set [1] turned out to be 4.7 nM.
On to `Cl.Cn1c2c(c3ccc(-n4ccc(-c5ccc(C(F)(F)F)cc5)cc4=O)cc31)CNCCC2` [Example 26], for which the melting point is 264 to 270 °C (dec.).
On to `Cl.Cn1c2c(c3ccc(-n4ccc(-c5ccc(C(F)(F)F)nc5)cc4=O)cc31)CNCCC2` [Example 27, 1-(6-Methyl-1,2,3,4,5,6-hexahydroazepino[4,3-b]indol-8-yl)-4-(6-(trifluoromethyl)pyridin-3-yl)pyridin-2(1H)-one hydrochloride], for which the melting point was 274 to 280 °C (dec.). The Ki in data set [1] stood at 5.3 nM.
The matching figures for `Cl.Cn1c2c(c3ccc(-n4ccc(-c5ccc(C(F)(F)F)nn5)cc4=O)cc31)CNCCC2` [Example 28, 1-(6-Methyl-1,2,3,4,5,6-hexahydroazepino[4,3-b]indol-8-yl)-4-(6-(trifluoromethyl)pyridazin-3-yl)pyridin-2(1H)-one hydrochloride]: 248 to 252 °C (dec.) and 10.9 nM.
On to `CSc1ccc(-c2ccn(-c3ccc4c5c(n(C)c4c3)CCCNC5)c(=O)c2)cc1.Cl` [Example 32, 1-(6-Methyl-1,2,3,4,5,6-hexahydroazepino[4,3-b]indol-8-yl)-4-(4-(methylthio)phenyl)pyridin-2(1H)-one hydrochloride], for which the melting point was 250 to 255 °C (dec.). Moreover, the Ki in data set [1] was determined as 4.9 nM.
On to `Cc1ccc(-c2ccn(-c3ccc4c5c(n(C)c4c3)CCCNC5)c(=O)c2)cn1.Cl` [Example 33, 1-(6-Methyl-1,2,3,4,5,6-hexahydroazepino[4,3-b]indol-8-yl)-4-(6-methylpyridin-3-yl)pyridin-2(1H)-one hydrochloride], for which the melting point was 245 to 250 °C (dec.). For the same compound, the Ki in data set [1] came out at 17.5 nM.
Turning to `Cl.O=c1cc(-c2ccc(C(F)(F)F)cn2)ccn1-c1ccc2c3c([nH]c2c1)CCCNC3` [Example 36, 1-(1,2,3,4,5,6-Hexahydroazepino[4,3-b]indol-8-yl)-4-(5-(trifluoromethyl)pyridin-2-yl)pyridin-2(1H)-one hydrochloride], the melting point was 310 to 320 °C (dec.). In data set [1], the Ki came out at 12.2 nM.
On to `Cl.O=c1cc(-c2ccc(C(F)(F)F)nn2)ccn1-c1ccc2c3c([nH]c2c1)CCCNC3` [Example 37, 1-(1,2,3,4,5,6-Hexahydroazepino[4,3-b]indol-8-yl)-4-(6-(trifluoromethyl)pyridazin-3-yl)pyridin-2(1H)-one hydrochloride], for which the melting point is 310 to 315 °C (dec.). In addition, the Ki in data set [1] worked out at 29.2 nM.
In turn, `Cn1c2c(c3ccc(-n4ccc(OCc5ccccc5)cc4=O)cc31)C(=O)NCCC2` [Example 38] had a melting point of 178 to 181 °C. Also, in data set [1], the Ki stood at 100 nM.
Turning to `Cl.Cn1c2c(c3ccc(-n4ccc(OCc5ccc(F)cn5)cc4=O)cc31)CCNCC2` [Example 40], the melting point is 194 to 202 °C (dec.).
For `Cl.Cn1c2c(c3ccc(-n4ccc(-c5ccc(C(F)(F)F)cc5)cc4=O)cc31)CCNCC2` [Example 41], the melting point is 306 to 310 °C (dec.).
`Cl.Cn1c2c(c3ccc(-n4ncc(OCc5ccc(C(F)(F)F)nc5)cc4=O)cc31)CCNCC2` [Example 47, 2-(6-Methyl-1,2,3,4,5,6-hexahydroazepino[4,5-b]indol-8-yl)-5-((6-(trifluoromethyl)pyridin-3-yl)methoxy)pyridazin-3(2H)-one hydrochloride]: the melting point is 270 to 274 °C. In data set [1], the Ki was determined as 74 nM.
On to `CC(=O)N1CCc2c(n(C)c3cc(-n4ccc(OCc5ccc(F)cn5)cc4=O)ccc23)CC1.Cl` [Example 48, 1-(3-Acetyl-6-methyl-1,2,3,4,5,6-hexahydroazepino[4,5-b]indol-8-yl)-4-((5-fluoropyridin-2-yl)methoxy)pyridin-2(1H)-one], for which the melting point fell in the range of 88 to 94 °C. Further, in data set [1], the Ki was determined as 60 nM.
The matching figures for `CC(=O)N1CCc2[nH]c3cc(-n4ccc(OCc5ccccc5)cc4=O)ccc3c2CC1` [Example 54, 1-(3-Acetyl-1,2,3,4,5,6-hexahydroazepino[4,5-b]indol-8-yl)-4-(benzyloxy)pyridin-2(1H)-one]: 250 to 254 °C and 112 nM.
In the same order, the values of `Cl.Cn1c2c(c3ccc(-n4ccc(OCc5ncc(Cl)cc5Cl)cc4=O)cc31)CCNCC2` [Example 56, 4-((3,5-Dichloropyridin-2-yl)methoxy)-1-(6-methyl-1,2,3,4,5,6-hexahydroazepino[4,5-b]indol-8-yl)pyridin-2(1H)-one hydrochloride] are 178 to 180 °C and 27 nM.
For the compound `CC(=O)N1CCCc2c(c3ccc(-n4ccc(OCc5ccc(F)cn5)cc4=O)cc3n2C)C1` [Example 61, 1-(2-Acetyl-6-methyl-1,2,3,4,5,6-hexahydroazepino[4,3-b]indol-8-yl)-4-((5fluoropyridin-2-yl)methyoxy)pyridin-2(1H)-one], the melting point was in the range of 78 to 83 °C. For the same compound, the Ki in data set [1] stood at 57 nM.
Compound `CC(=O)N1CCCc2c(c3ccc(-n4ccc(-c5ccc(C(F)(F)F)nc5)cc4=O)cc3n2C)C1` [Example 62, 1-(2-Acetyl-6-methyl-1,2,3,4,5,6-hexahydroazepino[4,3-b]indol-8-yl)-4-(6-(trifluoromethyl)pyridin-3-yl)pyridin-2(1H)-one] showed a melting point of 156 to 162 °C. In data set [1], the Ki came to 60 nM.
The matching figures for `Cl.Cn1c2c(c3ccc(-n4ccc(OCc5ccc(Cl)cn5)cc4=O)cc31)CNCCC2` [Example 63, 4-((5-Chloropyridin-2-yl)methoxy)-1-(6-methyl-1,2,3,4,5,6-hexahydroazepino[4,3-b]indol-8-yl)pyridin-2(1H)-one hydrochloride]: 260 to 266 °C and 5 nM.
`Cl.Cn1c2c(c3ccc(N4CCN(CCc5ccc(Cl)cc5)CC4=O)cc31)CNCCC2` [Example 64, 4-(4-Chlorophenethyl)-1-(6-methyl-1,2,3,4,5,6-hexahydroazepino[4,3-b]indol-8-yl)piperazin-2-one hydrochloride] displayed a melting point of 252 to 257 °C. In data set [1], the Ki was 4.6 nM.
As for `Cl.Cn1c2c(c3ccc(-n4ccc(OCc5ccc(F)cc5F)cc4=O)cc31)CNCCC2` [Example 66, 4-(2,4-Difluorobenzyloxy)-1-(6-methyl-1,2,3,4,5,6-hexahydroazepino[4,3-b]indol-8-yl)pyridin-2(1H)-one hydrochloride], the melting point was in the range of 272 to 280 °C. Further, the Ki in data set [1] was 7.3 nM.
